The values below come from ChEMBL document CHEMBL4602720, “Degradation versus Inhibition: Development of Proteolysis-Targeting Chimeras for Overcoming Statin-Induced Compensatory Upregulation of 3-Hydroxy-3-methylglutaryl Coenzyme A Reductase” (J Med Chem, 2020).

For the experiment, the target named is Protein cereblon/3-hydroxy-3-methylglutaryl-coenzyme A reductase (Cricetulus griseus) (UniProt P00347+G3H338). Nature of the experiment: Protac activity at CRBN/HMGCR in Insig-1/Insig-2 deficient Chinese hamster SRD15 cells assessed as HMGCR level at 1 uM after 16 hrs in presence of 1 uM P22A-Et by immunoblotting analysis (reference value: 1).

SMILES strings stand for the structures.

`CC(C)c1c(C(=O)Nc2ccccc2)c(-c2cccc(OCCCc3cn(CCOCCOCCOCCOCCNc4cccc5c4C(=O)N(C4CCC(=O)NC4=O)C5=O)nn3)c2)c(-c2ccc(F)cc2)n1CC[C@@H](O)C[C@@H](O)CC(=O)O` (stereo partly specified): the fold change (FC) was found to be 1.1.
